The record followed here is ChEMBL document CHEMBL4118217, “Pyrrolinone derivatives as a new class of P2X3 receptor antagonists. Part 1: Initial structure-activity relationship studies of a hit from a high throughput screening” (Bioorg Med Chem Lett, 2018).

Usually ED50 stands for the midpoint of the dose-response relation. One may read the IC50 as the point on the concentration scale where inhibition reaches its midpoint. Read a low IC50 as greater potency in that assay. The term half-life denotes how long it takes for the measured level to halve. A higher half-life goes with slow decline. The term clearance denotes a measure of how efficiently the substance is removed, as volume per time. Low readings indicate inefficient removal, high ones efficient removal. As usually defined, the bioavailability is the share of a dose that reaches the circulation, judged against a reference dose that is usually intravenous.

In one data set the test system is Mus musculus. Nature of the data set: Analgesic activity in iv dosed mouse assessed as inhibition of acetic acid-induced writhes. In kind it is functional.
The next data set deals with T1, P2X purinoceptor 3 (Homo sapiens, UniProt P56373).
T1 sequence (P56373 whole entry): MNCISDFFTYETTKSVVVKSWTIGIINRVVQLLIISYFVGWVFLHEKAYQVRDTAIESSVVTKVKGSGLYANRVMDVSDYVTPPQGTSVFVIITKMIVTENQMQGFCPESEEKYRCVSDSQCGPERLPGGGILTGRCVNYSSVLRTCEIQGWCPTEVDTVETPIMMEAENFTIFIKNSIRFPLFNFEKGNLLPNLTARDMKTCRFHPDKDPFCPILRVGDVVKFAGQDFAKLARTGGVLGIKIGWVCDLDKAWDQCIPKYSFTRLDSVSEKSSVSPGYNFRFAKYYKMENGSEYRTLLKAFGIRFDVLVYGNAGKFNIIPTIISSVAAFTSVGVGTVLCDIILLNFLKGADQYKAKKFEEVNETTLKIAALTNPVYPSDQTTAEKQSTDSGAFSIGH

Data set [1] in a line: Half life in rat at 0.5 mg/kg, iv or 1 mg/kg, po. To be noted: in vivo. In kind it is ADME, organism-based.
A further data set is described as follows: in vivo. The conditions noted are these: rat, iv, 0.5 mg/kg.
Data set [2] can be described thus: Oral bioavailability in rat at 1 mg/kg. The format is ADME, organism-based. To be noted: in vivo.

Where only a bound is given, the exact number is not on record here.

`COc1ccc(C(=O)C2=C([O-])C(=O)N(c3ccc(-c4ccon4)cc3)C2C2CCCCC2)cc1.[Na+]` (stereo unspecified): the 50% effective dose (ED50) in the data set on Mus musculus worked out at 2.6 mg/kg.

On to `COc1ccc(C(=O)C2=C(O)C(=O)N(c3ccc(-c4nnc(C)o4)cc3)C2C2CCCCC2)cc1` (stereo unspecified), for which the half-inhibitory concentration (IC50) at P2X purinoceptor 3 is 72 nM. This compound also showed a half-life in data set [1] of 1.7 h. Also, the clearance in “in vivo” came out at 5.5 mL/min/kg. Moreover, in data set [2], the bioavailability came out at 2.9%.

`COc1ccc(C(=O)C2=C(O)C(=O)N(c3ccc(-c4ccon4)cc3)C2C2CCCCC2)cc1` (stereo unspecified) [listing 1 of 2 here]: in data set [1], the half-life was 1.3 h. In addition, in data set [2], the bioavailability was 10.2%.

`COc1ccc(C(=O)C2=C(O)C(=O)N(c3ccc(C(C)=O)cc3)C2c2ccccc2)cc1` (stereo unspecified): inhibition at P2X purinoceptor 3 was half-maximal at 3280 nM (IC50).

`CCOC(=O)c1ccc(N2CC(C(=O)c3ccc(OC)cc3)=C(O)C2=O)cc1` returned an IC50 on P2X purinoceptor 3 of more than 10000 nM.

`CCOC(=O)c1ccc(N2C(=O)C(O)=C(c3ccc(OC)cc3)C2c2ccccc2)cc1` (stereo unspecified) returned an IC50 at P2X purinoceptor 3 of more than 10000 nM.

Take `CCOC(=O)c1ccc(N2C(=O)C(O)=C(C(=O)c3ccc(OC)cc3)C2c2ccccc2F)cc1` (stereo unspecified): at P2X purinoceptor 3, the IC50 came to 130 nM.

On to `COc1ccc(C(=O)C2=C(O)C(=O)N(c3ccc(-c4nc(C)no4)cc3)C2C2CCCCC2)cc1` (stereo unspecified), for which, in data set [1], the half-life was 1 h. This compound yielded a clearance in “in vivo” of 3.4 mL/min/kg. In data set [2], this compound returned a bioavailability of 13.5%.

`CCOC(=O)c1ccc(N2C(=O)C(O)=C(C(C)=O)C2c2ccccc2)cc1` (stereo unspecified) registered an IC50 at P2X purinoceptor 3 of 4790 nM.

`COc1ccc(C(=O)C2=C(O)C(=O)N(c3ccc(-c4noc(C)n4)cc3)C2c2ccccc2)cc1` (stereo unspecified) displayed an IC50 against P2X purinoceptor 3 of 100 nM.

For the compound `COc1ccc(C(=O)C2=C(O)C(=O)N(c3ccccc3)C2c2ccccc2)cc1` (stereo unspecified), the 50% inhibitory concentration (IC50) on P2X purinoceptor 3 is more than 10000 nM.

At P2X purinoceptor 3, `CCOC(=O)c1ccc(N2C(=O)C(O)=C(C(=O)c3ccc(OC)cc3)C2c2ccccc2Cl)cc1` (stereo unspecified) displayed an IC50 of 90 nM.

As to `CCOC(=O)c1ccc(N2C(=O)C(O)=C(C(=O)c3ccc(OC)cc3)C2C2CCCCC2)cc1` (stereo unspecified), at P2X purinoceptor 3, 10 nM corresponded to half-maximal inhibition (IC50).

As for `CCOC(=O)c1ccc(N2C(=O)C(O)=C(C(=O)c3ccc(OC)cc3)C2c2cccc(F)c2)cc1` (stereo unspecified), on P2X purinoceptor 3, the IC50 was 30 nM.

For `CCOC(=O)c1ccc(N2C(=O)C(O)=C(NC(=O)c3ccc(OC)cc3)C2c2ccccc2)cc1` (stereo unspecified), at P2X purinoceptor 3, half-maximal inhibition (IC50) was put at 1370 nM.

At P2X purinoceptor 3, `COc1ccc(C(=O)C2=C(O)C(=O)N(c3ccc(C(=O)O)cc3)C2c2ccccc2)cc1` (stereo unspecified) gave an IC50 of more than 10000 nM.

In turn, `CCOC(=O)c1ccc(N2C(=O)C(O)=C(/C(=N/O)c3ccc(OC)cc3)C2c2ccccc2)cc1` (stereo unspecified) came in with an IC50 against P2X purinoceptor 3 of 560 nM.

In turn, `COc1ccc(C(=O)C2=C(O)C(=O)N(c3ccc(-c4noc(C)n4)cc3)C2C2CCCCC2)cc1` (stereo unspecified) had an IC50 against P2X purinoceptor 3 of 19 nM. The compound further showed a half-life in data set [1] of 0.8 h. The clearance in “in vivo” was 5 mL/min/kg. Further, the bioavailability in data set [2] worked out at 7.1%.

On P2X purinoceptor 3, `CCOC(=O)c1ccc(N2C(=O)C(O)=C(C(=O)Nc3ccc(OC)cc3)C2c2ccccc2)cc1` (stereo unspecified) showed an IC50 of 3930 nM.

On P2X purinoceptor 3, `CCOC(=O)c1ccc(N2C(=O)C(O)=C(C(=O)c3ccc(OC)cc3)C2c2ccccc2)cc1` (stereo unspecified) had an IC50 of 20 nM.

`CCOC(=O)c1ccc(N2C(=O)C(O)=C(C(=O)c3ccc(OC)cc3)C2c2ccc(F)cc2)cc1` (stereo unspecified) yielded an IC50 at P2X purinoceptor 3 of 20 nM. This compound also showed a half-life in data set [1] of 0.1 h. Besides, the clearance in the data set “in vivo” was determined as 37 mL/min/kg.

For `COc1ccc(C(=O)C2=C(O)C(=O)N(c3ccc(CO)cc3)C2c2ccccc2)cc1` (stereo unspecified), the concentration for half-maximal inhibition (IC50) at P2X purinoceptor 3 is more than 10000 nM.

For `COc1ccc(C(=O)C2=C(O)C(=O)N(c3ccc(C(F)(F)F)cc3)C2c2ccc(F)cc2)cc1` (stereo unspecified), on P2X purinoceptor 3, the IC50 was determined as 360 nM.

`COc1ccc(C(=O)C2=C(O)C(=O)N(c3ccc(-c4ncco4)cc3)C2C2CCCCC2)cc1` (stereo unspecified) registered an IC50 against P2X purinoceptor 3 of 135 nM.

Compound `CCOC(=O)c1ccc(N2C(=O)C(O)=C(C(=O)c3ccccc3)C2c2ccccc2)cc1` (stereo unspecified) registered an IC50 at P2X purinoceptor 3 of 370 nM.

With `COc1ccc(C(=O)C2=C(O)C(=O)N(c3ccc(-c4cc(C)no4)cc3)C2C2CCCCC2)cc1` (stereo unspecified), at P2X purinoceptor 3, the IC50 was determined as 9 nM. The half-life in data set [1] is 1.1 h. The compound also gave a clearance in the data set “in vivo” of 6.2 mL/min/kg. This compound also gave a bioavailability in data set [2] of 0.5%.

As for `CCOC(=O)c1ccc(N2C(=O)C(O)=C(C(=O)c3ccc(OC)cc3)C2c2ccc(Cl)cc2)cc1` (stereo unspecified), the IC50 at P2X purinoceptor 3 came to 130 nM.

On P2X purinoceptor 3, `CCOC(=O)c1ccc(N2C(=O)C(NO)=C(C(=O)c3ccc(OC)cc3)C2c2ccccc2)cc1` (stereo unspecified) yielded an IC50 of 4240 nM.

Compound `CCOC(=O)c1ccc(N2C(=O)C=C(C(=O)c3ccc(OC)cc3)C2c2ccccc2)cc1` (stereo unspecified) yielded an IC50 against P2X purinoceptor 3 of more than 10000 nM.

As to `CCOC(=O)c1ccc(N2C(=O)C(OC)=C(C(=O)c3ccc(OC)cc3)C2c2ccccc2)cc1` (stereo unspecified), on P2X purinoceptor 3, half-maximal inhibition (IC50) required 9800 nM.

`CCOC(=O)c1ccc(N2C(=O)C(O)=C(Cc3ccc(OC)cc3)C2c2ccccc2)cc1` (stereo unspecified) displayed an IC50 against P2X purinoceptor 3 of more than 10000 nM.

On to `COc1ccc(C(=O)C2=C(O)C(=O)N(c3ccc(-c4ccon4)cc3)C2C2CCCCC2)cc1` (stereo unspecified) [listing 2 of 2 here], for which the inhibition result in the data set with Mus musculus was “Dose-dependent effect”.
